Results on 1 molecule are retold here after patent US20130178391A1, “METHODS FOR PREDICTING TREATMENT RESPONSE BASED ON THE EXPRESSION PROFILES OF BIOMARKER GENES IN NOTCH MEDIATED CANCERS” (Rosetta Inpharmaceutics LLC, priority 2007, published 2013).

A value given as a limit tells only on which side of the number the result lay.

The subject of one assay is human T-ALL cell lines. In words: Grouping of 16 T-ALL cell lines by GSI sensitivity (7-day ATP viability assay). The assay is classed as cell-based. On the procedure: (§1) Human T-ALL cell lines were purchased from ATCC (Manassas, Va.) or DSMZ (Braunschweig, Germany). Cell lines were maintained in RPMI supplemented with 10-15% FBS and 2 mmol/L glutamine. For IC50 analyses TALL cell lines were plated in 96 well plates at 5000 cells/well, except for Tall-1 cells which were plated at 10,000 cells/well. Cells were re-fed with compound and media on day 4. Viability assays were performed using Cell Titer Glo kit (Promega, Cat. No. G7572, Fitchburg, Wis.) 7 days after compound addition. For larger scale compound treatments, TALL cell lines were plated in T-150 flasks at 200,000 cells/mL and treated at 0.1 or 1.0 μM GSI (MRK-003) for 3 days or as indicated. GSI washout studies were performed using 10 μM GSI. T-150 cultures were also re-fed on day 4.
Previous studies have identified mutations in the heterodimerization domain or PEST domain of the NOTCH1 gene in T-ALL cell lines and patient samples resulting in increased NICD and presumably activation of the NOTCH signaling pathway (Weng, Ferrando et al. 2004; Zhu, Zhao et al. 2006). In a subset of human T-ALL cell lines with activating mutations in NOTCH1, treatment with GSIs leads to cell cycle arrest and apoptosis (Weng, Ferrando et al. 2004; Lewis, Leveridge et al. 2007). […] We determined IC50 values for 16 T-ALL cell lines using a 7-day viability assay which allowed grouping into four sensitivity groups (1) high, IC50<1 uM, (2) medium, IC50 3-4 uM, (3) low, IC50 6-7 uM, (4) none, IC50>10 uM and comparison to NOTCH1 mutuation and NICD protein Levels (Table1).
GSI IC50s, based on a 7-day ATP viability assay, are summarized for 16 T-ALL cell lines and grouped into high […], medium (3-4 uM), low (6-7 uM) or insensitive groupings (>10 uM). Also summarized is NOTCH1 mutation status, NICD levels and cell line group size for each sensitivity level previously described (O'Neil et al. 2007). NICD levels are reported qualitatively based on immunoblot signal, 0=none, 1=low, 2=medium, 3=high.

Assay [1] deals with CDKN2D, CDKN1B. Kind of assay: Immunoblot of CDKN2D and CDKN1B. To be noted: TALL1 cells. The assay is classed as cell-based, Human. An excerpt:
Standard western blotting procedures were used. Antibodies used as follows; Rb-underphosphorylated, (BD Biosciences, Cat. No 554164, San Jose, Calif.) Rb-Total (Cat. No. 9309), CDKN1B (Cell Signaling Technologies, Cat. No. 2552, Danvers, Mass.), CDKN2D (Santa Cruz Biotechnologies, Cat No. sc-1063, Santa Cruz, Calif.), Beta-Actin (Abcam Inc., Cat. No. 8226, Cambridge, Mass.) Immunoblot of NOTCH intracellular domain (NICD) was previously determined (O'Neil, Grim et al. 2007)
For orientation: A western blot detects proteins with antibodies after separation by electrophoresis.

Assay [2] concerns CDKN2D, CDKN1B. Kind of assay: Quantitative PCR of CDKN2D and CDKN1B in T-ALL cell lines. The format is cell-based, Human. The conditions noted are these: TALL1 cells, 48 hours. On the procedure:
T-ALL cell lines were treated with DMSO or MRK-003 (active GSI) for 48 hours and then harvested. RNA was isolated using the RNeasy Mini Kit (Qiagen, Cat#: 74106). cDNA was synthesized using High Capacity Archive Kit (Applied Biosystems, Cat #: 4368814). qPCR was performed on an ABI 7900 using AACT protocol using their inventoried Taqman Probes/Primers for human CDKN2D, CDKN1B and GAPDH (as internal control). Analysis was performed in SDS 2.2.2 software (Applied Biosystems).

In a further assay the test system is TALL1. In words: Flow cytometry DNA content analysis (cell cycle arrest). The format is cell-based, Human. The conditions noted are these: GSI sensitive cell line TALL1, flow cytometry. The protocol: DNA content analysis was performed using Propidium Iodide/RNase buffer (BD Biosciences, Cat. No. 550825, San Jose, Calif.) or Draq5. Briefly, 1×10(6) cells were harvested and fixed with 70% ethanol for 20 minutes on ice, washed and then resupended in 500 uL of PI buffer for 15 min at room temperature followed by analysis on flow cytometer (FACSCalibur, BD Biosciences). Draq5 staining was performed by incubating 200,000 live cells with 10 uM Draq5 for 5 minutes followed by flow cytometric analysis (488 nm excitation).
(In general: A flow cytometer gives signals particle by particle.)

A further assay concerns MOLT -4. Kind of assay: 7-day Cell Titer Glo viability assay. The assay is classed as cell-based, Human. To be noted: MOLT -4 cells, 7-day viability assay. On the procedure: as §1
A further assay concerns DND41. In words: 7-day Cell Titer Glo viability assay. The format is cell-based, Human. The conditions noted are these: DND41 cells, 7-day viability assay. On the procedure: as §1
For orientation: In ATP-based viability assays light output follows the ATP content of the culture.

Another assay deals with SKW-3. Kind of assay: 7-day Cell Titer Glo viability assay. The format is cell-based, Human. The conditions noted are these: SKW-3 cells, 7-day viability assay. The protocol: as §1
The next assay has as its system RPMI 8402. In words: 7-day Cell Titer Glo viability assay. The format is cell-based, Human. To be noted: RPMI 8402 cells, 7-day viability assay. On the procedure: as §1
The test system of the next assay is KARPAS-45. Kind of assay: 7-day Cell Titer Glo viability assay. The format is cell-based, Human. The conditions noted are these: KARPAS-45 cells, 7-day viability assay. The protocol: as §1
In the next assay the test system is TALL-1. In words: 7-day Cell Titer Glo viability assay. The assay is classed as cell-based, Human. To be noted: TALL-1 cells, 7-day viability assay. The protocol:
as §1

For another assay, the system named is MOLT-16. In words: 7-day Cell Titer Glo viability assay. The format is cell-based, Human. To be noted: MOLT-16 cells, 7-day viability assay. The protocol:
as §1

The next assay deals with HBP-ALL. Kind of assay: 7-day Cell Titer Glo viability assay. The format is cell-based, Human. The conditions noted are these: HBP-ALL cells, 7-day viability assay. On the procedure: as §1
In the next assay the test system is JURKAT. In words: 7-day Cell Titer Glo viability assay. The format is cell-based, Human. To be noted: JURKAT cells, 7-day viability assay. On the procedure: as §1
For another assay, the system named is PF-382. Kind of assay: 7-day Cell Titer Glo viability assay. The format is cell-based, Human. The conditions noted are these: PF-382 cells, 7-day viability assay. On the procedure:
as §1

In a further assay the test system is HSB-2. Kind of assay: 7-day Cell Titer Glo viability assay. The format is cell-based, Human. To be noted: HSB-2 cells, 7-day viability assay. The protocol: as §1
The next assay has as its system SUPT-11. Kind of assay: 7-day Cell Titer Glo viability assay. The assay is classed as cell-based, Human. To be noted: SUPT-11 cells, 7-day viability assay. On the procedure: as §1
The subject of another assay is KOPTK-1. In words: 7-day Cell Titer Glo viability assay. The assay is classed as cell-based, Human. The conditions noted are these: KOPTK-1 cells, 7-day viability assay. On the procedure:
as §1

Another assay deals with CEM. Kind of assay: 7-day Cell Titer Glo viability assay. The assay is classed as cell-based, Human. To be noted: CEM cells, 7-day viability assay. On the procedure: as §1
The subject of another assay is BE-13. In words: 7-day Cell Titer Glo viability assay. The assay is classed as cell-based, Human. The conditions noted are these: BE-13 cells, 7-day viability assay. The protocol:
as §1

In the next assay the test system is LOUCY. In words: 7-day Cell Titer Glo viability assay. The assay is classed as cell-based, Human. The conditions noted are these: LOUCY cells, 7-day viability assay. The protocol:
as §1

For the molecule `O=S1(=O)N[C@@]2(CN1CC(F)(F)F)[C@@H]1CC[C@H]2Cc2ccc(/C=C/CN3CCC(C(F)(F)F)CC3)cc2C1` [MRK-003], the “GSI Sensitivity” value in the assay with human T-ALL cell lines (cell lines BE-13, SUPT-11) was “Low (low, IC50 6-7 uM)”; in the assay on human T-ALL cell lines (cell lines CEM, PF-382, HSB-2), “Medium (medium, IC50 3-4 uM)”; in the assay on human T-ALL cell lines (cell lines JURKAT, LOUCY, MOLT -4, MOLT-16, SKW-3), “None (none, IC50>10 uM)”; with human T-ALL cell lines (cell lines TALL-1, KOPTK-1, DND41, HBP-ALL, KARPAS-45, RPMI 8402) it was “High (high, IC50<1 uM)”. The “increases in CDKN2D and CDKN1B by immunoblot (FIG. 3C)” value in the assay on CDKN2D, CDKN1B [1] is “increases in the CDKi CDKN2D and CDKN1B”. In the assay with CDKN2D, CDKN1B [2], the “increases in CDKN2D and CDKN1B by quantitative PCR (FIG. 3B)” value is “increases in the CDKi CDKN2D and CDKN1B”. In addition, in the assay with TALL1, the “cell cycle arrest (FIG. 3A)” value is “induced cell cycle arrest”. Also, the IC50 (commonly the midpoint of a concentration-inhibition curve) in the assay with MOLT -4 was more than 10 µM; in the assay on DND41, 0.25 µM; in the assay on SKW-3, more than 10 µM; in the assay with RPMI 8402, 0.86 µM; in the assay with KARPAS-45, 0.81 µM; in the assay on TALL-1, 0.11 µM. Further, the IC50 is more than 10 µM in the assay with MOLT-16; 0.38 µM in the assay with HBP-ALL; more than 10 µM with JURKAT; 3.2 µM with PF-382; 3.7 µM in the assay with HSB-2; 7.1 µM with SUPT-11. The IC50 in the assay on KOPTK-1 is 0.15 µM; in the assay with CEM, 3.2 µM; in the assay with BE-13, 6.8 µM; with LOUCY it was more than 10 µM.
